pIC50: −log10 of the molar value.
Tested on: 926638-142-R-J1-PDC complex spheroid viability
Test: Anticancer human tumor 926638-142-R-J1-PDC patient-derived endometrial carcinoma cell line growth inhibition [POLQ]
Settings: for pIC50: curve of first compound; for viability, T/C: stronger effect = lower value
Outline: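 Growth inhibition in 3D: complex spheroids (tumor PDC, HUVEC, MSC) treated with POLQ inhibitor combinations; where Cmax unknown, highest tested concentration 10 microM, except SN-38 at 1 microM.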

[1] = second compound 0.0316 µM, first compound 0.00316 µM
[2] = second compound 0.0316 µM, first compound 0.01 µM
[3] = second compound 0.0316 µM, first compound 0.0316 µM
[4] = second compound 0.0316 µM, first compound 0.1 µM
[5] = second compound 0.0316 µM, first compound 0.316 µM
[6] = second compound 0.0316 µM, first compound 1 µM
[7] = second compound 0.1 µM, first compound 0.00316 µM
[8] = second compound 0.1 µM, first compound 0.01 µM
[9] = second compound 0.1 µM, first compound 0.0316 µM
[10] = second compound 0.1 µM, first compound 0.1 µM
[11] = second compound 0.1 µM, first compound 0.316 µM
[12] = second compound 0.1 µM, first compound 1 µM
[13] = second compound 0.316 µM, first compound 0.00316 µM
[14] = second compound 0.316 µM, first compound 0.01 µM
[15] = second compound 0.316 µM, first compound 0.0316 µM
[16] = second compound 0.316 µM, first compound 0.1 µM
[17] = second compound 0.316 µM, first compound 0.316 µM
[18] = second compound 0.316 µM, first compound 1 µM
[19] = second compound 1 µM, first compound 0.00316 µM
[20] = second compound 1 µM, first compound 0.01 µM
[21] = second compound 1 µM, first compound 0.0316 µM
[22] = second compound 1 µM, first compound 0.1 µM
[23] = second compound 1 µM, first compound 0.316 µM
[24] = second compound 1 µM, first compound 1 µM
[25] = second compound 3.16 µM, first compound 0.00316 µM
[26] = second compound 3.16 µM, first compound 0.01 µM
[27] = second compound 3.16 µM, first compound 0.0316 µM
[28] = second compound 3.16 µM, first compound 0.1 µM
[29] = second compound 3.16 µM, first compound 0.316 µM
[30] = second compound 3.16 µM, first compound 1 µM
[31] = second compound 10 µM, first compound 0.00316 µM
[32] = second compound 10 µM, first compound 0.01 µM
[33] = second compound 10 µM, first compound 0.0316 µM
[34] = second compound 10 µM, first compound 0.1 µM
[35] = second compound 10 µM, first compound 0.316 µM
[36] = second compound 10 µM, first compound 1 µM
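Note: spheroids exposed to drugs for one week before readout.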
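Throughout, for viability, T/C: percent viability relative to DMSO vehicle control wells set as 100%.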

COc1cccc(OCCCN)c1-c1cc(Nc2cnc(C#N)cn2)n[nH]1 + COC1C(OC(N)=O)C(O)C(Oc2ccc3c(O)c(NC(=O)c4ccc(O)c(CC=C(C)C)c4)c(=O)oc3c2C)OC1(C)C
pIC50 (second compound 0.0316 µM): 6.84
pIC50 (second compound 0.1 µM): 6.91
pIC50 (second compound 0.316 µM): 6.95
pIC50 (second compound 1 µM): 6.97
pIC50 (second compound 3.16 µM): 7.15
pIC50 (second compound 10 µM): 7.11
viability, T/C [1]: 104%
viability, T/C [2]: 96.4%
viability, T/C [3]: 65.9%
viability, T/C [4]: 61.8%
viability, T/C [5]: 36%
viability, T/C [6]: 24.8%
viability, T/C [7]: 111%
viability, T/C [8]: 79%
viability, T/C [9]: 68.3%
viability, T/C [10]: 56.6%
viability, T/C [11]: 39%
viability, T/C [12]: 31.5%
viability, T/C [13]: 94.2%
viability, T/C [14]: 74.5%
viability, T/C [15]: 62.7%
viability, T/C [16]: 51.4%
viability, T/C [17]: 42.2%
viability, T/C [18]: 35.2%
viability, T/C [19]: 87.7%
viability, T/C [20]: 77.9%
viability, T/C [21]: 47.3%
viability, T/C [22]: 56.4%
viability, T/C [23]: 49.1%
viability, T/C [24]: 29.6%
viability, T/C [25]: 92.6%
viability, T/C [26]: 89.3%
viability, T/C [27]: 60.4%
viability, T/C [28]: 46.2%
viability, T/C [29]: 46.5%
viability, T/C [30]: 31.7%
viability, T/C [31]: 81.2%
viability, T/C [32]: 80.8%
viability, T/C [33]: 65%
viability, T/C [34]: 44.5%
viability, T/C [35]: 36.9%
viability, T/C [36]: 27.9%

Cn1ncnc1[C@H]1c2n[nH]c(=O)c3cc(F)cc(c23)N[C@@H]1c1ccc(F)cc1 + COC1C(OC(N)=O)C(O)C(Oc2ccc3c(O)c(NC(=O)c4ccc(O)c(CC=C(C)C)c4)c(=O)oc3c2C)OC1(C)C
pIC50 (second compound 0.0316 µM): < 7.00
pIC50 (second compound 0.1 µM): < 7.00
pIC50 (second compound 0.316 µM): < 7.00
pIC50 (second compound 1 µM): < 7.00
pIC50 (second compound 3.16 µM): < 7.00
pIC50 (second compound 10 µM): < 7.00
viability, T/C (second compound 0.0316 µM, first compound 0.000316 µM): 84.5%
viability, T/C (second compound 0.0316 µM, first compound 0.001 µM): 83.7%
viability, T/C [1]: 81.7%
viability, T/C [2]: 86.5%
viability, T/C [3]: 71.5%
viability, T/C [4]: 79.5%
viability, T/C (second compound 0.1 µM, first compound 0.000316 µM): 106%
viability, T/C (second compound 0.1 µM, first compound 0.001 µM): 96.4%
viability, T/C [7]: 86%
viability, T/C [8]: 90.5%
viability, T/C [9]: 76.3%
viability, T/C [10]: 69.5%
viability, T/C (second compound 0.316 µM, first compound 0.000316 µM): 117%
viability, T/C (second compound 0.316 µM, first compound 0.001 µM): 86.4%
viability, T/C [13]: 72.7%
viability, T/C [14]: 78.5%
viability, T/C [15]: 69.7%
viability, T/C [16]: 60.3%
viability, T/C (second compound 1 µM, first compound 0.000316 µM): 85.5%
viability, T/C (second compound 1 µM, first compound 0.001 µM): 94.1%
viability, T/C [19]: 92.3%
viability, T/C [20]: 60.1%
viability, T/C [21]: 78.6%
viability, T/C [22]: 76.7%
viability, T/C (second compound 3.16 µM, first compound 0.000316 µM): 68.5%
viability, T/C (second compound 3.16 µM, first compound 0.001 µM): 81.7%
viability, T/C [25]: 74.3%
viability, T/C [26]: 81.7%
viability, T/C [27]: 78.5%
viability, T/C [28]: 69.6%
viability, T/C (second compound 10 µM, first compound 0.000316 µM): 84.8%
viability, T/C (second compound 10 µM, first compound 0.001 µM): 90.2%
viability, T/C [31]: 77.6%
viability, T/C [32]: 81%
viability, T/C [33]: 82.4%
viability, T/C [34]: 76.6%

O=C(c1cc(Cc2n[nH]c(=O)c3ccccc23)ccc1F)N1CCN(C(=O)C2CC2)CC1 + COC1C(OC(N)=O)C(O)C(Oc2ccc3c(O)c(NC(=O)c4ccc(O)c(CC=C(C)C)c4)c(=O)oc3c2C)OC1(C)C
pIC50 (second compound 0.0316 µM): < 5.00
pIC50 (second compound 0.1 µM): < 5.00
pIC50 (second compound 0.316 µM): < 5.00
pIC50 (second compound 1 µM): < 5.00
pIC50 (second compound 3.16 µM): < 5.00
pIC50 (second compound 10 µM): < 5.00
viability, T/C [3]: 86%
viability, T/C [4]: 115%
viability, T/C [5]: 95.5%
viability, T/C [6]: 115%
viability, T/C (second compound 0.0316 µM, first compound 3.16 µM): 84.3%
viability, T/C (second compound 0.0316 µM, first compound 10 µM): 89.7%
viability, T/C [9]: 92.3%
viability, T/C [10]: 95.5%
viability, T/C [11]: 108%
viability, T/C [12]: 95.6%
viability, T/C (second compound 0.1 µM, first compound 3.16 µM): 89.3%
viability, T/C (second compound 0.1 µM, first compound 10 µM): 76.8%
viability, T/C [15]: 92.3%
viability, T/C [16]: 95.5%
viability, T/C [17]: 101%
viability, T/C [18]: 98.1%
viability, T/C (second compound 0.316 µM, first compound 3.16 µM): 80.3%
viability, T/C (second compound 0.316 µM, first compound 10 µM): 80.1%
viability, T/C [21]: 117%
viability, T/C [22]: 91.1%
viability, T/C [23]: 110%
viability, T/C [24]: 97.5%
viability, T/C (second compound 1 µM, first compound 3.16 µM): 80.7%
viability, T/C (second compound 1 µM, first compound 10 µM): 89.3%
viability, T/C [27]: 98.2%
viability, T/C [28]: 102%
viability, T/C [29]: 89.4%
viability, T/C [30]: 111%
viability, T/C (second compound 3.16 µM, first compound 3.16 µM): 99.6%
viability, T/C (second compound 3.16 µM, first compound 10 µM): 85.7%
viability, T/C [33]: 95.5%
viability, T/C [34]: 89.3%
viability, T/C [35]: 92.2%
viability, T/C [36]: 116%
viability, T/C (second compound 10 µM, first compound 3.16 µM): 83.1%
viability, T/C (second compound 10 µM, first compound 10 µM): 96%
